Assay results from PMC11359809, “Probing the molecular basis for signal transduction through the Zinc-Activated Channel (ZAC)” (Biochemical pharmacology, 2021).
Several values for one entry are separate records, joined by “and”; a condition that tells them apart may be missing. Identical values can stand only once.

What was measured:
[1] = molecular target: T1, WT m5-HT3AR (Mus musculus, UniProt P23979); assay: TEVC in Xenopus oocytes expressing WT m5-HT3AR; assay type: cell-based
T1 construct: expressed in transfected cells; host or cells: Xenopus oocytes injected with cRNA (pUNIV vector)
T1 sequence (P23979 24-489): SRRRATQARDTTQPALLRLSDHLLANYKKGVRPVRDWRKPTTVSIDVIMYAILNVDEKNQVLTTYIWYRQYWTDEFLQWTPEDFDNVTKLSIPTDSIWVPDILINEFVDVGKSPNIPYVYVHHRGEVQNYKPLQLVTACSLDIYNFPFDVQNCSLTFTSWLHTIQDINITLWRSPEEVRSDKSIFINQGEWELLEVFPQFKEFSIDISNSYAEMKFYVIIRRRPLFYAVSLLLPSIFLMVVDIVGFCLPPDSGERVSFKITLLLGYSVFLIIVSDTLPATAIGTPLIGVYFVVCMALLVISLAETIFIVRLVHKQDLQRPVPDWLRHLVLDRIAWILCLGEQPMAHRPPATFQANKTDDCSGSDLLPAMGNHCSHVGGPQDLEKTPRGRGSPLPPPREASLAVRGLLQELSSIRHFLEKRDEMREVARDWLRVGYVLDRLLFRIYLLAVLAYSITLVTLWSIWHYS
Experimental: (§1) The recordings were performed at room temperature.
(§2) Analysis of the data from the TEVC recordings were performed using Clampfit software version 10.5 (Molecular Devices, Crawley, UK) and GraphPad Prism version 7.0c (GraphPad Software, La Jolla, CA). Unless otherwise stated, the inward currents induced by agonists in oocytes were normalized to the maximal response elicited by a specific agonist (agonist Imax) on each oocyte. Concentration-response and concentration-inhibition curves were fitted in GraphPad Prism by nonlinear regression using the equation for sigmoidal dose-response with variable slope. Each data point represents the mean ± S.E.M. value of recordings performed on at least five oocytes in total from at least two different batches. For the data where statistical analysis was performed, a one-way ANOVA was used. The null hypothesis was rejected at P < 0.05, and the differences between the means were analyzed by Tukey’s multiple comparisons test.

[2] = molecular target: T2, m5-HT3A/ZAC (Mus musculus / Homo sapiens, UniProt P23979); assay: TEVC in oocytes expressing m5-HT3A/ZAC chimera; assay type: cell-based
T2 sequence (P23979 24-246): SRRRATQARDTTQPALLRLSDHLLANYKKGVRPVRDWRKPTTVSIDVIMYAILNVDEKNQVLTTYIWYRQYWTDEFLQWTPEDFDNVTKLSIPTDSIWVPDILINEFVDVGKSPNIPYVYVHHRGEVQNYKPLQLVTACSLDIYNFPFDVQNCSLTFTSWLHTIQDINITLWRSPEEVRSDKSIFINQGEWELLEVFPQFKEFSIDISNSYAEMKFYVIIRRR
T2 sequence (Q401N2 231-412 partner): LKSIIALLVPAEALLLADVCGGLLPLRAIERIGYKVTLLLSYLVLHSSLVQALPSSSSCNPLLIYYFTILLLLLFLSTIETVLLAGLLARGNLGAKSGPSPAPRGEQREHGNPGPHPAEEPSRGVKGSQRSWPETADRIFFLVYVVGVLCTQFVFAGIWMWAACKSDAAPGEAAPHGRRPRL
Description: (§3) The construction of the ZAC-pUNIV plasmid (encoding for the human WT ZAC that contains a Thr in position 128) has been described previously. The m5-HT3A and hα1 GlyR cDNAs were subcloned from their original vectors into pUNIV (Addgene, Watertown, MA) using NheI and EcoRI as restriction enzymes. […] The C-terminus modifications in these four chimeras were introduced in their cDNAs in the same way. Point mutations were introduced in cDNAs by use of the QuikChange mutagenesis kit (Stratagene, San Diego, CA). The validity and absence of unwanted mutations in the constructed cDNAs was verified by DNA sequencing (Macrogen Europe, Amsterdam, The Netherlands).
(§4) All cDNAs used for cRNA synthesis were inserted in the pUNIV vector. The cDNAs were linearized and subsequently transcribed and capped using the mMessage mMachine T7 RNA transcription kit (Ambion, Waltham, MA). […] Oocytes were incubated in a sterile modified Barth’s solution [88 mM NaCl, 1 mM KCl, 15 mM HEPES (pH 7.5), 2.4 mM NaHCO3, 0.41 mM CaCl2, 0.82 mM MgSO4, 0.3 mM Ca(NO3)2, 100 U/ml penicillin and 100 μg/ml streptomycin] at 16–18 °C. Based on experience gained with WT ZAC in a recent study, all TEVC recordings were performed two days after cRNA injection.
(§5) On the day of the TEVC recording, all compound dilutions were prepared in a saline solution [115 mM NaCl, 2.5 mM KCl, 10 mM MOPS (pH 7.5), 1.8 mM CaCl2, 0.1 mM MgCl2], and pH was adjusted to 7.5 (if needed). Oocytes were placed in a recording chamber continuously perfused with this saline solution, and the compounds were applied in the perfusate. Both voltage and current electrodes were agar-plugged with 3 M KCl with a resistance of 0.2–2.0 MΩ. Oocytes were voltage-clamped at −50 mV (except in the studies of the chimeras and their parent receptors where they were clamped at −60 mV, section 3.1), by a Gene Clamp 500B amplifier, and current signals were digitized by a Digidata 1322A (both from Axon Instruments, Union City, CA). Currents were recorded using pCLAMP 10 (Molecular Devices, Sunnyvale, CA). The recordings were performed at room temperature.
(§6) In all recordings, compounds or compound combinations were applied in the bath until the peak current decayed to a steady state (up to 30 s). […] The antagonist properties of compounds were determined by pre-application of the compound to the perfusate for 30 s followed by co-application of the compound and the agonist. In all recordings, washes of 1–5 min were executed between the ligand applications, the length of the washes depending on the agonist concentrations used and on the return to baseline current amplitude.
as §2

[3] = system: m5-HT3A^FPR/ZAC; assay: TEVC in oocytes, Cys-loop modified chimera m5-HT3A^FPR/ZAC; assay type: cell-based, mouse/human; details: data not shown
Experimental: as §1
To probe the effects of exchanges of regions involved in the ECD/TMD cross-talk between the two CLRs fused in a chimera on its functionality, we constructed 12 additional chimeras, three for each of the four original chimeras (Fig. 1A). Inspired by the similar modifications that have been introduced in a functional GLIC/hα1-Gly chimera, we swapped one or both of two specific regions: the three-residue FPX (Phe-Pro-X) motif in the Cys-loop of the ECD (FPR, FPF and […] in ZAC, m5-HT3A and hα1 GlyR, respectively), which is known to protude into proximity of the M2-M3 linker during the ECD/TMD cross-talk, and the extracellular C-terminus of the TMD, which differs substantially in both amino acid sequence and length between ZAC and the two classical CLRs combined with it in the chimeras (Fig. 4B). […] In light of this, it was not surprising that the four chimeras comprising exchanges of both the FPX motif and the C-terminus also were non-functional (data not shown).

[4] = molecular target: T3, WT hα1 GlyR (Homo sapiens, UniProt P23415); assay type: cell-based
T3 construct: expressed in transfected cells; host or cells: Xenopus oocytes injected with cRNA (pUNIV vector)
T3 sequence (P23415 29-457): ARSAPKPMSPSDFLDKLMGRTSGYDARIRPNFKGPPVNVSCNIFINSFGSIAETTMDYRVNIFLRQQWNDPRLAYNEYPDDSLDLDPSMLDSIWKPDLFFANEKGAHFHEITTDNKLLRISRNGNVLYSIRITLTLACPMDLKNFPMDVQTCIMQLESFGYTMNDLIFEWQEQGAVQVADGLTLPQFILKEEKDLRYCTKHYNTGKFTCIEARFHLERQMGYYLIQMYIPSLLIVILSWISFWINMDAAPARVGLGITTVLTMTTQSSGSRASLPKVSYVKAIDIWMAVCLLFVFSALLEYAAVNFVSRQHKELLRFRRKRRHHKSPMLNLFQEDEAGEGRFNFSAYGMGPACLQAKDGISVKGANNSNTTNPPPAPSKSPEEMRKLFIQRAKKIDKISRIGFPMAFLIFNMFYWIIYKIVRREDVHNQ
Description: as §3, §4, §5, §6
as §2, with “For the data where statistical analysis was performed, a one-way ANOVA was used.” left out

[5] = system: hα1-Gly/ZAC; assay: TEVC in oocytes expressing hα1-Gly/ZAC chimera; assay type: cell-based, human; details: 1 mM Gly; n = 5
Experimental: as §1, §2
Initially, we constructed four chimeric subunits fusing the ZAC ECD or TMD-ICD with the complementary domains from either the m5-HT3A or the hα1 GlyR subunit: ZAC/m5-HT3A, m5-HT3A/ZAC, ZAC/hα1-Gly and hα1-Gly/ZAC (Fig. 1A). […] (Fig. 1A).

[6] = system: hα1-Gly/ZAC-II; details: Gly 1 mM; data not shown
Description: as §3
All cDNAs used for cRNA synthesis were inserted in the pUNIV vector. […]
On the day of the TEVC recording, all compound dilutions were prepared in a saline solution [115 mM NaCl, 2.5 mM KCl, 10 mM MOPS (pH 7.5), 1.8 mM CaCl2, 0.1 mM MgCl2], and pH was adjusted to 7.5 (if needed). […] Currents were recorded using pCLAMP 10 (Molecular Devices, Sunnyvale, CA). […]
In all recordings, compounds or compound combinations were applied in the bath until the peak current decayed to a steady state (up to 30 s). […] The antagonist properties of compounds were determined by pre-application of the compound to the perfusate for 30 s followed by co-application of the compound and the agonist. […]

[7] = sustained (4 min) application of 100 μM 5-HT
[8] = sustained (4 min) application of 3 μM 5-HT

| Imax (current amplitude evoked by saturating agonist) ([1]; 300 μM 5-HT, n = 7) | nH ± S.E.M. (Hill slope) ([1]; agonist, n = 7) | Iresidual, 4 min [1, 7] | Δtstart-to-peak [1, 7] | time to complete return to baseline ([1]; sustained application of 100 μM 5-HT, mean ± S.E.M., n = 7) | Imax (current amplitude evoked by saturating agonist) ([2]; 3 μM 5-HT, n = 12) | 5-HT-evoked current amplitudes ([2]; high-expressing half of the oocytes) | 5-HT-evoked current amplitudes ([2]; low-expressing half of the oocytes) | Iresidual, 4 min [2, 8] | Δtstart-to-peak [2, 8] | SMILES | concentration-response relationship compared to m5-HT3A/ZAC [3] | Imax (current amplitude evoked by saturating agonist) [4] | Δtpeak-to-plateau [4] | Δtstart-to-peak [4] | I1 mM Gly ± S.E.M. [5] | agonist-evoked current [6] |
| --- | --- | --- | --- | --- | --- | --- | --- | --- | --- | --- | --- | --- | --- | --- | --- | --- |
| 2.92 ± 0.13 μA | 1.3 ± 0.3 | ~0 (none) % of Ipeak | 2.1 ± 0.4 s | 98 ± 12 s | 0.60 ± 0.19 μA | 0.8–2.1 μA | 0.1–0.2 μA | 67 % of Ipeak and 67 ± 6 % of Ipeak | 46 ± 7.2 s | NCCc1c[nH]c2ccc(O)cc12 [5-HT, 5-hydroxytryptamine] | not significantly different | – | – | – | – | – |
| – | – | – | – | – | – | – | – | – | – | NCC(=O)O [Gly, glycine] | – | 2.02 ± 0.24 μA | 52 ± 5.9 s | 2.7 ± 0.3 s | −0.0062 ± 0.0022 μA | did not induce significant responses |
